Calls of active or inactive are those of the source. The rule behind the calls is not given here.
Assays:
[1] = system: SK-OV-3; assay: Antiproliferative activity against human SKOV3 cells measured after 96 hrs; format: functional, cell-based; conditions: SK-OV-3, 96 h
[2] = system: MDA-MB-231; assay: Antiproliferative activity against human MDA-MB-231 cells measured after 96 hrs; format: functional, cell-based; conditions: MDA-MB-231, 96 h
[3] = system: HCT-116; assay: Antiproliferative activity against human HCT116 cells measured after 96 hrs; format: functional, cell-based; conditions: HCT-116, 96 h
[4] = system: OVCAR-3; assay: Antiproliferative activity against human OVCAR3 cells measured after 96 hrs; format: functional, cell-based; conditions: OVCAR-3, 96 h
[5] = system: Caov-3 cell line; assay: Antiproliferative activity against human Caov3 cells measured after 96 hrs; format: functional, cell-based; conditions: Caov-3, 96 h
[6] = biological target: T1, Monoglyceride lipase (Homo sapiens, UniProt Q99685); assay: Inhibition of recombinant human C-terminal His-tagged MAGL expressed in Escherichia coli using 4-NPA as substrate pretreated with substrate 15 mins followed by enzyme addition measured after 30 mins
T1 sequence (Q99685 whole entry): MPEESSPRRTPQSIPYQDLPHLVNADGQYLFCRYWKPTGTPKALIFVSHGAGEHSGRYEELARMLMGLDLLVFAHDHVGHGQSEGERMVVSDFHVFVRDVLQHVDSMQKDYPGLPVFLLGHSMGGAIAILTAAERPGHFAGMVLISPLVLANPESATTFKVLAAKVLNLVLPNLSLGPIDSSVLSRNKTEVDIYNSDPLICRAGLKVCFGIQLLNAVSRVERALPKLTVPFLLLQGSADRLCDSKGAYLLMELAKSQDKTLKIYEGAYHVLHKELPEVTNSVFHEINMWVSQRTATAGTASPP

[7] = biological target: T2, Monoglyceride lipase (Homo sapiens) (UniProt Q99685); assay: Reversible inhibition of recombinant human C-terminal His-tagged MAGL expressed in Escherichia coli at 20 uM using 4-NPA as substrate pretreated for 60 mins followed by 40 times compound dilution for 15 mins and subsequent substrate addition measured after 30 mins
T2 sequence (whole entry): T1 sequence (Q99685 whole entry)

[8] = biological target: T3, Cannabinoid receptor 1 (Homo sapiens, UniProt P21554); assay: Displacement of [3H]CP55940 from recombinant human CB1 expressed crude membranes after 90 mins by liquid scintillation counting method
[9] = biological target: T4, Fatty-acid amide hydrolase 1 (Homo sapiens, UniProt O00519); assay: Inhibition of FAAH in human U937 cells using [ethanolamine-1-3H]AEA as substrate pretreated for 30 mins followed by substrate addition and measured after 15 mins by liquid scintillation counting method; format: cell-based
T4 sequence (O00519 whole entry): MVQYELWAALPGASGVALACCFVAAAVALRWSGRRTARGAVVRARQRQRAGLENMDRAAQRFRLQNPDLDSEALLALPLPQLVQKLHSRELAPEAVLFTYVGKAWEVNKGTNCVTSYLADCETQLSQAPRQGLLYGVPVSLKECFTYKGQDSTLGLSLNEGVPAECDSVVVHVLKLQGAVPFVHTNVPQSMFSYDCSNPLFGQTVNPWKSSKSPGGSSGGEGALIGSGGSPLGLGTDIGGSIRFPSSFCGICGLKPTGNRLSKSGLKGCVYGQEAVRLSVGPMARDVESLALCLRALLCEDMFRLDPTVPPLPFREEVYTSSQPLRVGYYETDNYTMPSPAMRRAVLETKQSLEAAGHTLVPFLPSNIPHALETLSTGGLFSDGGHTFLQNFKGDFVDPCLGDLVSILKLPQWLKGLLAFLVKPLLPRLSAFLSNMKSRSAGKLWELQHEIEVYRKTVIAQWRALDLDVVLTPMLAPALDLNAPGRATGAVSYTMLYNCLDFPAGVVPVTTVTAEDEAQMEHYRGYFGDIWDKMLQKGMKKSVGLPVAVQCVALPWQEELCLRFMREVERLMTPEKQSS

[10] = biological target: T2, Monoglyceride lipase (Homo sapiens); assay: Reversible inhibition of recombinant human C-terminal His-tagged MAGL expressed in Escherichia coli using 4-NPA as substrate pretreated up to 60 mins followed by substrate addition and measured after 30 mins
[11] = biological target: T1, Monoglyceride lipase; assay: Inhibition of recombinant human C-terminal His-tagged MAGL expressed in Escherichia coli using 4-NPA as substrate measured after 30 mins
[12] = biological target: T1, Monoglyceride lipase; assay: Inhibition of recombinant human C-terminal His-tagged MAGL expressed in Escherichia coli using 4-NPA as substrate pretreated with substrate 15 mins in presence of DTT followed by enzyme addition measured after 30 mins
[13] = biological target: T3, Cannabinoid receptor 1; assay: Displacement of [3H]CP55940 from recombinant human CB1 expressed in crude membranes at 10 uM after 90 mins by liquid scintillation counting method relative to control; format: cell membranes
[14] = biological target: Estrogen receptor beta (Homo sapiens) (UniProt Q92731); assay: Displacement of [3H]-estradiol from full length human ERbeta expressed in insect cells after 18 to 24 hrs by radiometric method relative to estradiol
[15] = biological target: T5, Estrogen receptor (Homo sapiens) (UniProt P03372); assay: Displacement of [3H]-estradiol from full length human untagged ERalpha expressed in Sf insect cells after 18 to 24 hrs by radiometric method relative to estradiol
T5 sequence (whole entry): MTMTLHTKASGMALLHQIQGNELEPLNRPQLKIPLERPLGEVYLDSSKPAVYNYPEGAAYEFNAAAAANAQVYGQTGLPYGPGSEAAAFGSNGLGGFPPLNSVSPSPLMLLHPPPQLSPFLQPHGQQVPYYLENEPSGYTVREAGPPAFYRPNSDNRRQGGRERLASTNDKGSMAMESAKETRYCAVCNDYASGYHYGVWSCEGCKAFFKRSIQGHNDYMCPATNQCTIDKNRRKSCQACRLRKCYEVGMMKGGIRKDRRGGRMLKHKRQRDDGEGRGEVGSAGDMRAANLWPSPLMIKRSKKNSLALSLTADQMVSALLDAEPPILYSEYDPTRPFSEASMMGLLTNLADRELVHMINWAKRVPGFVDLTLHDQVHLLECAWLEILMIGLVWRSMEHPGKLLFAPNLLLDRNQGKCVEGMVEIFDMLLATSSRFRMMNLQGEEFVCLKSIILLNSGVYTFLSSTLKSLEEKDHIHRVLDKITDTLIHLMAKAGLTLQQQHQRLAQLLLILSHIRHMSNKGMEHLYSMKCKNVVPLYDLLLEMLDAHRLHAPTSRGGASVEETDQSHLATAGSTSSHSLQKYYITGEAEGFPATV

T3 sequence (P21554 whole entry): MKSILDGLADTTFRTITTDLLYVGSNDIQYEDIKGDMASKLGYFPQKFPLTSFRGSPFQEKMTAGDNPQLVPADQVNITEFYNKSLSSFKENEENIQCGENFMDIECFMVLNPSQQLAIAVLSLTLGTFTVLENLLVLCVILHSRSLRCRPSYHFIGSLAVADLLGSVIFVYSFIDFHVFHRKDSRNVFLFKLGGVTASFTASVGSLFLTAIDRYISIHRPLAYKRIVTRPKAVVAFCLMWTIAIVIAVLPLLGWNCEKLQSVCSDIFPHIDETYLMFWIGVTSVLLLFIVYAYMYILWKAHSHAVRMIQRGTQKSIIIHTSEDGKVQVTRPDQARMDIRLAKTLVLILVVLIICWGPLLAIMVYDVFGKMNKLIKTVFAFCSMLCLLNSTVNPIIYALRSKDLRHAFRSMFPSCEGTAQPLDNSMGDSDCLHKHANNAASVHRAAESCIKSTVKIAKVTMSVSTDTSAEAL
Chain of Estrogen receptor beta (Homo sapiens) (Q92731 whole entry): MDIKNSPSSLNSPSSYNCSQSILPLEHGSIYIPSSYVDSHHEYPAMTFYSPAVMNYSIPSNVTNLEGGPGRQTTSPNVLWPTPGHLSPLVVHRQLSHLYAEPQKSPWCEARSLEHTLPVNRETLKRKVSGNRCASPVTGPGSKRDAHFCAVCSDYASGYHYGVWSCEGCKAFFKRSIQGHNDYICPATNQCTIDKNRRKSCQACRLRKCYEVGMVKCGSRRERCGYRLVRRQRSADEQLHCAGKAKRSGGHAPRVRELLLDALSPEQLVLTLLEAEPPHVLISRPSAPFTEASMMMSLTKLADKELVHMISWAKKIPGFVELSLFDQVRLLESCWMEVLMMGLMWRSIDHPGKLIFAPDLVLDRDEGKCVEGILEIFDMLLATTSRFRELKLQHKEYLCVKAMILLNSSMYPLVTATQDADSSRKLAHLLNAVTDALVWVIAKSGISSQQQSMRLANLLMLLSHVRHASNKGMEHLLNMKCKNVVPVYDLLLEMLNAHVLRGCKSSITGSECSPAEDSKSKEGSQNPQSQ

SMILES | IC50 [1] | IC50 [2] | IC50 [3] | IC50 [4] | IC50 [11] | IC50 [5] | also measured
COc1nn(-c2ccc(NC(=O)OCc3ccccc3)c(C)c2)c(=O)o1 | 34 µM | 42 µM | 89 µM | 50 µM | – | 92 µM | –
CCCCCCCCCCCCC/C(=N\O)c1cc(-c2ccc(OC)c(F)c2)ccc1O | – | – | – | – | > 200 µM | – | –
CCCC/C(=N\O)c1cc(-c2ccc(OC)cc2)ccc1O | – | – | – | – | 119 µM | – | –
CCCCCCCCCCCCCCC/C(=N\O)c1cc(-c2ccc(OC)c(F)c2)ccc1O | – | – | – | – | > 200 µM | – | –

More lines, main results first:

IC50 [1] | IC50 [2] | IC50 [3] | IC50 [4] | IC50 [11] | SMILES | IC50 [5] | also measured
26 µM | 73 µM | 11 µM | 28 µM | 0.68 µM | CCCCCCCCCCCCC/C(=N\O)c1cc(-c2ccc(O)c(F)c2)ccc1O | 14 µM | IC50 [6]: 0.68 µM; inhibition [7]: Active; IC50 [8]: 4.1 µM; IC50 [9]: 8.7 µM; inhibition [10]: Active; IC50 [12]: 0.7 µM; inhibition [13]: 5%
– | – | – | – | 34 µM | C/C(=N\O)c1cc(-c2ccc(O)c(F)c2)ccc1O | – | –
20 µM | 45 µM | 7.6 µM | 40 µM | 0.71 µM | CCCCCCCCCCC/C(=N\O)c1cc(-c2ccc(O)c(F)c2)ccc1O | 11 µM | IC50 [8]: 2.6 µM; IC50 [9]: 4.1 µM; inhibition [13]: 5%
– | – | – | – | 11 µM | CC/C(=N\O)c1cc(-c2ccc(O)c(F)c2)ccc1O | – | RBA [14]: 37%; RBA [15]: 2.1%

Reference: ChEMBL document CHEMBL4270621, “Discovery of long-chain salicylketoxime derivatives as monoacylglycerol lipase (MAGL) inhibitors” (Eur J Med Chem, 2018)
